Test [1] has as its target T1, Urotensin-2 receptor (Homo sapiens, UniProt Q9UKP6).
T1 sequence (Q9UKP6 whole entry): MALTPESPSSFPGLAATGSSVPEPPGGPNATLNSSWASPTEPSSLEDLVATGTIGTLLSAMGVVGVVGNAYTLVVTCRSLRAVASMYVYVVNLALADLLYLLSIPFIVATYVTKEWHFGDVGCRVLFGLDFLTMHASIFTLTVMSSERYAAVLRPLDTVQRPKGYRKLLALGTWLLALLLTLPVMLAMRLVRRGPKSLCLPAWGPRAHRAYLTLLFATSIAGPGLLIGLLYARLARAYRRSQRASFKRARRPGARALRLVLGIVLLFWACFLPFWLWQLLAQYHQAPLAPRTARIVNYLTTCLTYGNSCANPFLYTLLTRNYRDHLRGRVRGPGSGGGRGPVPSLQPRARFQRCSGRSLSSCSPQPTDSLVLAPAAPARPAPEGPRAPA
In words: Displacement of [125I]urotensin-2 from human UT2 receptor expressed in CHO-K1 cells by liquid scintillation counting. In kind it is cell-based.

Test [2] deals with T2, Urotensin-2 receptor (Rattus norvegicus, UniProt P49684).
T2 sequence (P49684 whole entry): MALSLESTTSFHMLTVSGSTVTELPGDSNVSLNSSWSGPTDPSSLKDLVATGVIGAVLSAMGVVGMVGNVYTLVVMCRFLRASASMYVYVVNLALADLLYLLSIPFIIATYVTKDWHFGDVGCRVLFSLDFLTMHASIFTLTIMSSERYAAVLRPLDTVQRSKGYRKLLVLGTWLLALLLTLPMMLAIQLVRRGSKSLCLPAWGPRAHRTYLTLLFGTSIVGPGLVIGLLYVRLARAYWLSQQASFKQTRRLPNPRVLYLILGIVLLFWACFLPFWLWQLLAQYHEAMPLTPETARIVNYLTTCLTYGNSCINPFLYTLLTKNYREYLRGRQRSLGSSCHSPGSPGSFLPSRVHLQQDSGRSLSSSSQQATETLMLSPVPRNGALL
In words: Agonist activity at UT2 receptor in Albino rat aorta assessed as induction of aortic contraction.

The target of test [3] is T3, Urotensin-2 receptor (Rattus norvegicus) (UniProt P49684).
T3 sequence (whole entry): T2 sequence (P49684 whole entry)
In words: Antagonist activity at UT2 receptor in Albino rat aorta assessed as inhibition of […] aortic contraction. The test is classed as functional, tissue-based.

We go through 26 compounds from ChEMBL document CHEMBL1136926 (J Med Chem, 2009).

Positions of bridges follow the written chain, without caps; N, C: chain ends. Non-standard residues stand in square brackets, D forms with d. Residues, ends and D or L forms follow the SMILES beside them. Phe(4-NO2) = N[C@@H](Cc1ccc([N+](=O)[O-])cc1)C(=O)O; Phe(4-Cl) = N[C@@H](Cc1ccc(Cl)cc1)C(=O)O; 1Nal = N[C@@H](Cc1cccc2ccccc12)C(=O)O; 2Nal = N[C@@H](Cc1ccc2ccccc2c1)C(=O)O; Tic = O=C(O)[C@@H]1Cc2ccccc2CN1; Pen = CC(C)(S)[C@H](N)C(=O)O

As a reminder, the Ki is a measure of affinity in units of concentration, obtained from inhibition or displacement. Read a low Ki as a stronger hold on the target. As for `CC(C)[C@H](NC(=O)[C@@H]1CSSC(C)(C)[C@H](NC(=O)[C@H](C)N)C(=O)N[C@@H](Cc2ccccc2)C(=O)N[C@H](Cc2c[nH]c3ccccc23)C(=O)N[C@@H](CCCN)C(=O)N[C@@H](Cc2ccc(O)cc2)C(=O)N1)C(=O)O`, the Ki in test [1] is 1.66 nM. Consider `CC(C)[C@H](NC(=O)[C@@H]1CSSC(C)(C)[C@H](NC(=O)[C@@H](N)Cc2ccc([N+](=O)[O-])cc2)C(=O)N[C@@H](Cc2ccccc2)C(=O)N[C@H](Cc2c[nH]c3ccccc23)C(=O)N[C@@H](CCCN)C(=O)N[C@@H](Cc2ccc(O)cc2)C(=O)N1)C(=O)O`, for which the inhibition constant Ki in test [1] was 15.8 nM.

In test [1], `CC(C)[C@H](NC(=O)[C@@H]1CSSC(C)(C)[C@H](NC(=O)[C@@H](N)Cc2ccccc2)C(=O)N[C@@H](Cc2ccccc2)C(=O)N[C@H](Cc2c[nH]c3ccccc23)C(=O)N[C@@H](CCCN)C(=O)N[C@@H](Cc2ccc(O)cc2)C(=O)N1)C(=O)O` gave an inhibition constant Ki of 19.5 nM. With `CC(C)[C@H](NC(=O)[C@@H]1CSSC(C)(C)[C@H](NC(=O)[C@@H](N)Cc2ccc(Cl)cc2)C(=O)N[C@@H](Cc2ccccc2)C(=O)N[C@H](Cc2c[nH]c3ccccc23)C(=O)N[C@@H](CCCN)C(=O)N[C@@H](Cc2ccc(O)cc2)C(=O)N1)C(=O)O`, in test [1], the Ki is 9.55 nM.

In test [1], `CC(C)[C@H](NC(=O)[C@@H]1CSSC(C)(C)[C@H](NC(=O)[C@@H](N)CCCCN)C(=O)N[C@@H](Cc2ccccc2)C(=O)N[C@H](Cc2c[nH]c3ccccc23)C(=O)N[C@@H](CCCN)C(=O)N[C@@H](Cc2ccc(O)cc2)C(=O)N1)C(=O)O` gave an inhibition constant (Ki) of 219 nM.

As for `CC(C)[C@H](NC(=O)[C@@H]1CSSC(C)(C)[C@H](NC(=O)[C@@H](N)Cc2cccc3ccccc23)C(=O)N[C@@H](Cc2ccccc2)C(=O)N[C@H](Cc2c[nH]c3ccccc23)C(=O)N[C@@H](CCCN)C(=O)N[C@@H](Cc2ccc(O)cc2)C(=O)N1)C(=O)O`, in test [1], affinity was put at a Ki of 3.89 nM. Turning to `CC(C)[C@H](NC(=O)[C@@H]1CSSC(C)(C)[C@H](NC(=O)[C@@H]2Cc3ccccc3CN2)C(=O)N[C@@H](Cc2ccccc2)C(=O)N[C@H](Cc2c[nH]c3ccccc23)C(=O)N[C@@H](CCCN)C(=O)N[C@@H](Cc2ccc(O)cc2)C(=O)N1)C(=O)O`, in test [1], the inhibitory constant (Ki) was 9.33 nM. As to `CC(C)[C@H](NC(=O)[C@@H]1CSSC(C)(C)[C@H](NC(=O)[C@@H](N)Cc2ccc3ccccc3c2)C(=O)N[C@@H](Cc2ccccc2)C(=O)N[C@H](Cc2c[nH]c3ccccc23)C(=O)N[C@@H](CCCN)C(=O)N[C@@H](Cc2ccc(O)cc2)C(=O)N1)C(=O)O`, affinity in test [1] was put at a Ki of 11.7 nM. The term EC50 denotes the concentration needed to bring the measured effect to its halfway point. With `CC(C)[C@H](NC(=O)[C@@H]1CSSC(C)(C)[C@H](NC(=O)[C@H](C)N)C(=O)N[C@@H](Cc2ccccc2)C(=O)N[C@@H](Cc2c[nH]c3ccccc23)C(=O)N[C@@H](CCCCN)C(=O)N[C@@H](Cc2ccc(O)cc2)C(=O)N1)C(=O)O`, the Ki in test [1] is 0.794 nM. Also, the half-maximal effective concentration (EC50) in test [2] was 9.12 nM. The pKb is the Kb on a negative log10 scale, so that one unit is a factor of ten. In the case of `CC(C)[C@H](NC(=O)[C@@H]1CSSC(C)(C)[C@@H](NC(=O)[C@@H](N)Cc2ccc(Cl)cc2)C(=O)N[C@@H](Cc2ccccc2)C(=O)N[C@H](Cc2c[nH]c3ccccc23)C(=O)N[C@@H](CCCN)C(=O)N[C@@H](Cc2ccc(O)cc2)C(=O)N1)C(=O)O`, the pKb in test [3] amounted to 7.85. For the compound `CC(C)[C@H](NC(=O)[C@@H]1CSSC(C)(C)[C@@H](NC(=O)[C@@H](N)Cc2ccc([N+](=O)[O-])cc2)C(=O)N[C@@H](Cc2ccccc2)C(=O)N[C@H](Cc2c[nH]c3ccccc23)C(=O)N[C@@H](CCCN)C(=O)N[C@@H](Cc2ccc(O)cc2)C(=O)N1)C(=O)O`, the negative logarithm of the Kb (pKb) in test [3] is 7.9. The same measure, in the same setting: the same measure for `CC(C)[C@H](NC(=O)[C@@H]1CSSC(C)(C)[C@@H](NC(=O)[C@@H](N)Cc2ccc3ccccc3c2)C(=O)N[C@@H](Cc2ccccc2)C(=O)N[C@H](Cc2c[nH]c3ccccc23)C(=O)N[C@@H](CCCN)C(=O)N[C@@H](Cc2ccc(O)cc2)C(=O)N1)C(=O)O`: 7.89.

With `CC(C)[C@H](NC(=O)[C@@H]1CSSC(C)(C)[C@@H](NC(=O)[C@@H](N)Cc2cccc3ccccc23)C(=O)N[C@@H](Cc2ccccc2)C(=O)N[C@H](Cc2c[nH]c3ccccc23)C(=O)N[C@@H](CCCN)C(=O)N[C@@H](Cc2ccc(O)cc2)C(=O)N1)C(=O)O`, the negative-log Kb (pKb) in test [3] was determined as 8.5.

On to `CC(C)[C@H](NC(=O)[C@@H]1CSSC(C)(C)[C@@H](NC(=O)[C@@H](N)Cc2ccccc2)C(=O)N[C@@H](Cc2ccccc2)C(=O)N[C@H](Cc2c[nH]c3ccccc23)C(=O)N[C@@H](CCCN)C(=O)N[C@@H](Cc2ccc(O)cc2)C(=O)N1)C(=O)O`, for which, in test [3], the pKb turned out to be 8.68. Regarding `CC(C)[C@H](NC(=O)[C@@H]1CSSC(C)(C)[C@@H](NC(=O)[C@@H]2Cc3ccccc3CN2)C(=O)N[C@@H](Cc2ccccc2)C(=O)N[C@H](Cc2c[nH]c3ccccc23)C(=O)N[C@@H](CCCN)C(=O)N[C@@H](Cc2ccc(O)cc2)C(=O)N1)C(=O)O`, the negative logarithm of the Kb (pKb) in test [3] was determined as 8.94. For `CC(C)[C@H](NC(=O)[C@@H]1CSSC(C)(C)[C@@H](NC(=O)[C@H](C)N)C(=O)N[C@@H](Cc2ccccc2)C(=O)N[C@H](Cc2c[nH]c3ccccc23)C(=O)N[C@@H](CCCN)C(=O)N[C@@H](Cc2ccc(O)cc2)C(=O)N1)C(=O)O`, in test [3], the pKb stood at 7.84. Take `CC(C)[C@H](NC(=O)[C@@H]1CSSC[C@H](NC(=O)[C@@H](N)CC(=O)O)C(=O)N[C@@H](Cc2ccccc2)C(=O)N[C@@H](Cc2c[nH]c3ccccc23)C(=O)N[C@@H](CCCCN)C(=O)N[C@@H](Cc2ccc(O)cc2)C(=O)N1)C(=O)O` (H-DCFWKYCV-OH; disulfide 2-7): the EC50 in test [2] is 2.51 nM.

Regarding `CC(C)[C@H](NC(=O)[C@@H]1CSSC(C)(C)[C@H](NC(=O)[C@@H](N)CC(=O)O)C(=O)N[C@@H](Cc2ccccc2)C(=O)N[C@@H](Cc2c[nH]c3ccccc23)C(=O)N[C@@H](CCCCN)C(=O)N[C@@H](Cc2ccc(O)cc2)C(=O)N1)C(=O)O` (H-D[Pen]FWKYCV-OH; disulfide 2-7), the EC50 in test [2] was 0.251 nM. Compound `CC(C)[C@H](NC(=O)[C@@H]1CSSC(C)(C)[C@H](NC(=O)[C@@H](N)Cc2ccccc2)C(=O)N[C@@H](Cc2ccccc2)C(=O)N[C@@H](Cc2c[nH]c3ccccc23)C(=O)N[C@@H](CCCCN)C(=O)N[C@@H](Cc2ccc(O)cc2)C(=O)N1)C(=O)O` (H-F[Pen]FWKYCV-OH; disulfide 2-7) showed a Ki in test [1] of 0.282 nM. Further, in test [2], the EC50 was 0.661 nM.

In turn, `CC(C)[C@H](NC(=O)[C@@H]1CSSC(C)(C)[C@H](NC(=O)[C@@H](N)CCCCN)C(=O)N[C@@H](Cc2ccccc2)C(=O)N[C@@H](Cc2c[nH]c3ccccc23)C(=O)N[C@@H](CCCCN)C(=O)N[C@@H](Cc2ccc(O)cc2)C(=O)N1)C(=O)O` (H-K[Pen]FWKYCV-OH; disulfide 2-7) had a Ki in test [1] of 9.33 nM. The concentration for a half-maximal effect (EC50) in test [2] was 6.03 nM. Compound `CC(C)[C@H](NC(=O)[C@@H]1CSSC(C)(C)[C@H](NC(=O)[C@@H](N)Cc2cccc3ccccc23)C(=O)N[C@@H](Cc2ccccc2)C(=O)N[C@@H](Cc2c[nH]c3ccccc23)C(=O)N[C@@H](CCCCN)C(=O)N[C@@H](Cc2ccc(O)cc2)C(=O)N1)C(=O)O` (H-[1Nal][Pen]FWKYCV-OH; disulfide 2-7) showed an inhibition constant Ki in test [1] of 26.3 nM. In addition, the EC50 in test [2] is 102 nM. Regarding `CC(C)[C@H](NC(=O)[C@@H]1CSSC(C)(C)[C@H](NC(=O)[C@@H](N)Cc2ccc3ccccc3c2)C(=O)N[C@@H](Cc2ccccc2)C(=O)N[C@@H](Cc2c[nH]c3ccccc23)C(=O)N[C@@H](CCCCN)C(=O)N[C@@H](Cc2ccc(O)cc2)C(=O)N1)C(=O)O` (H-[2Nal][Pen]FWKYCV-OH; disulfide 2-7), the Ki in test [1] was 6.46 nM. The half-maximal effective concentration (EC50) in test [2] was 5.25 nM.

Take `CC(C)[C@H](NC(=O)[C@@H]1CSSC(C)(C)[C@H](NC(=O)[C@@H](N)Cc2ccc(Cl)cc2)C(=O)N[C@@H](Cc2ccccc2)C(=O)N[C@@H](Cc2c[nH]c3ccccc23)C(=O)N[C@@H](CCCCN)C(=O)N[C@@H](Cc2ccc(O)cc2)C(=O)N1)C(=O)O` (H-[Phe(4-Cl)][Pen]FWKYCV-OH; disulfide 2-7): the affinity in test [1] corresponds to a Ki of 0.891 nM. Besides, the EC50 in test [2] was 1.38 nM. As for `CC(C)[C@H](NC(=O)[C@@H]1CSSC(C)(C)[C@H](NC(=O)[C@@H](N)Cc2ccc([N+](=O)[O-])cc2)C(=O)N[C@@H](Cc2ccccc2)C(=O)N[C@@H](Cc2c[nH]c3ccccc23)C(=O)N[C@@H](CCCCN)C(=O)N[C@@H](Cc2ccc(O)cc2)C(=O)N1)C(=O)O` (H-[Phe(4-NO2)][Pen]FWKYCV-OH; disulfide 2-7), the affinity in test [1] corresponds to a Ki of 13.5 nM. Also, the EC50 in test [2] was 72.4 nM. On the same counts, the results for `CC(C)[C@H](NC(=O)[C@@H]1CSSC(C)(C)[C@H](NC(=O)[C@@H]2Cc3ccccc3CN2)C(=O)N[C@@H](Cc2ccccc2)C(=O)N[C@@H](Cc2c[nH]c3ccccc23)C(=O)N[C@@H](CCCCN)C(=O)N[C@@H](Cc2ccc(O)cc2)C(=O)N1)C(=O)O` (H-[Tic][Pen]FWKYCV-OH; disulfide 2-7) are 2.63 nM and 1.35 nM. `CC(C)[C@H](NC(=O)[C@@H]1CSSC[C@H](NC(=O)[C@H](CC(=O)O)NC(=O)[C@@H]2CCCN2C(=O)[C@@H](NC(=O)[C@@H](N)CCC(=O)O)[C@@H](C)O)C(=O)N[C@@H](Cc2ccccc2)C(=O)N[C@@H](Cc2c[nH]c3ccccc23)C(=O)N[C@@H](CCCCN)C(=O)N[C@@H](Cc2ccc(O)cc2)C(=O)N1)C(=O)O` [HUMAN UROTENSIN II]: the EC50 in test [2] is 5.01 nM.
